# Several values for one entry are separate records, joined by “and”; a condition that tells them apart may be missing. Equal values may be shown once.
# Columns and labels:
# GIST-T1 xenografts = experiment: RNA-seq on GIST-T1 xenografts; type: in vivo, mice; conditions: 5 and 10 days of treatment
# Method: RNA-seq. Total RNA was isolated using a RNeasy Plus Kit (Qiagen Cat #74136), and concentration measured by Nanodrop (Thermo Fisher Scientific) and quality by TapeStation 4200 (Agilent). Library preparation was performed using the NEBNext Ultra II DNA Library Prep Kit (New England Biolabs Cat #E7645S). Paired-end 150 bp sequencing was performed on a NovaSeq 6000 (Illumina). RNA-seq data were aligned to hg19 using STAR (Dobin et al., Bioinformatics 29:15-21 (2012)) with expression quantification using Cufflinks (Trapnell et al., Nat. Biotechnol. 28:511-5 (2010)) to generate gene expression values in fragments per kilobase of transcript per million mapped reads (FPKM) units. Gene set enrichment analysis (GSEA, RRID: SCR_003199) (Subramanian et al., Proc. Natl. Acad. Sci. USA 102:15545-50 (2005)) was performed using Hallmark gene lists in the Molecular Signatures Database. Xenograft Models. […] VTP-50469 (0.1% in chow) or combination treatments.
# GIST cells [1] = experiment: Cell cycle analysis (propidium iodide, flow cytometry); type: cell-based, human; conditions: 72 hours imatinib
# Method: (§1) Cell cycle and apoptosis. […] Cells were trypsinized, washed in PBS and fixed in 70% ethanol. Propidium iodide at 25 μg/mL (Life Technologies Cat #P1304MP) and RNAse A at 0.2 mg/mL (Thermo Fischer Scientific Cat #EN0531) were used to stain nuclear DNA. Analysis was performed on a Guava easyCyte Flow Cytometer (Luminex Corporation), and single cells were assessed for nuclear content using Guava InCyte software. Apoptosis and cell death were measured following 72 h of drug treatment using Guava Nexin Reagent (Luminex Corporation Cat #4500-0450) per manufacturer's recommendations. Non-apoptotic cells stain negative for Annexin V and 7-AAD, early apoptotic cells stain positive for Annexin V but negative for 7-AAD and late apoptotic and dead cells stain positive for both Annexin V and 7-AAD. Staining was assayed on a Guava easyCyte Flow Cytometer and data analyzed using Guava InCyte software.
# GIST cells [2] = experiment: Apoptosis and cell death (Annexin V / 7-AAD, Guava Nexin); type: cell-based, human; conditions: 72-hour treatment, imatinib 0.5 μM
# Method: as §1, with “Apoptosis and cell death were measured following 72 h of drug treatment using Guava Nexin Reagent (Luminex Corporation Cat #4500-0450) per manufacturer's recommendations.” left out
# GIST-T1 cells [3] = experiment: RNA-seq and GSEA of drug-treated GIST-T1 cells; type: cell-based, human
# Method: RNA-seq. Total RNA was isolated using a RNeasy Plus Kit (Qiagen Cat #74136), and concentration measured by Nanodrop (Thermo Fisher Scientific) and quality by TapeStation 4200 (Agilent). Library preparation was performed using the NEBNext Ultra II DNA Library Prep Kit (New England Biolabs Cat #E7645S). Paired-end 150 bp sequencing was performed on a NovaSeq 6000 (Illumina). RNA-seq data were aligned to hg19 using STAR (Dobin et al., Bioinformatics 29:15-21 (2012)) with expression quantification using Cufflinks (Trapnell et al., Nat. Biotechnol. 28:511-5 (2010)) to generate gene expression values in fragments per kilobase of transcript per million mapped reads (FPKM) units. Gene set enrichment analysis (GSEA, RRID: SCR_003199) (Subramanian et al., Proc. Natl. Acad. Sci. USA 102:15545-50 (2005)) was performed using Hallmark gene lists in the Molecular Signatures Database.
# [4] = test system: GIST-T1 cell line xenografts; experiment: GIST-T1 cell line xenograft, tumor volume; type: in vivo, mice; conditions: for tumor volume relative to baseline: WM-1119 50 mg/kg gavage 3 times daily, one value per animal 1-6
# From the text: Xenograft Models. The PG27 patient derived xenograft was obtained from a patient undergoing clinically indicated surgery and following written informed consent to a Dana-Farber Cancer Institute IRB-approved research protocol. Cryopreserved tumor or the GIST-T1 cell line mixed 1:1 with matrigel were implanted subcutaneously into 6-week-old female nude mice (NU/NU; Charles River Laboratories). GIST-T1 tested negative for mycoplasma and rodent pathogens (Charles River Laboratories). For in vivo assessment of CRISPR/Cas9)-modified cell line growth. GIST-T1/Cas9 cells were treated with the indicated sgRNAs and selected with puromycin in vitro for 14 days prior to bilateral flank implantation. For drug treatment studies, singly engrafted mice were enrolled into treatment groups when tumors reached approximately 100-200 mm^3 in size, as measured by calipers and determined by the tumor volume equation: […]. […] WM-1119 (50 mg/kg gavage 3 times daily. 7 days per week). VTP-50469 (0.1% in chow) or combination treatments. […] Tumors were dissected and fixed in 10% formalin for corollary studies including H&E staining and immunohistochemistry of sectioned tumors. 4 μm sections were cut from fixed and embedded tumors and stained with Ki-67 (1:400, Cell Signaling Technology Cat #9027) and cleaved caspase-3 (1:250, Cell Signaling Technology Cat #9579). Reactions were developed using DAB (Cell Signaling Technology Cat #8059) or NovaRed (Vector Laboratories Cat #SK-4800) substrate kits per manufacturer recommendations. All procedures were conducted under protocols approved by the Institutional Animal Care and Use Committee at Dana-Farber Cancer Institute.
# GIST-T1 cells [5] = experiment: Growth over time assay in GIST-T1; type: cell-based, human; conditions: all doses tested; day 21 cell count
# From the text: Cell Culture and Virus Production. All cell lines tested negative for mycoplasma infection on routine surveillance (MilliporeSigma Cat #MP0025-1KT). Human embryonic kidney (HEK) 293 FT (Thermo Fisher Scientific Cat #R70007, RRID: CVCL_6911) and the GIST cell lines GIST-T1 (Cosmo Bio Cat #PMC-GIST01-COS, RRID: CVCL_4976; KIT mutation in exon 11 Δ560-578), GIST430 (RRID: CVCL_7040; KIT mutation in exon 11 Δ560-576), GIST48B (RRID: CVCL_M441: KIT-independent), and GIST882 (RRID: CVCL_7044: KIT mutation in exon 13 K642E) were cultured in Dulbecco's modified Eagle's medium containing 10% FBS, 2 mM L-glutamine, […], and […]. KIT rescue cell lines, which are independent of the KIT enhancer, were generated as previously described (Hemming et al., Cancer Research 79:994-1009 (2019)). Non-commercial cell lines were obtained from the laboratory of Jonathan Fletcher between 2014 and 2016. KIT exons were sequenced to confirm the expected coding mutations and cell identity of GIST cell lines, and cells were thawed from original or derived stocks and used in the described experiments within approximately 3 months. Transfections were performed with X-tremeGene (Roche, Cat #6365809001). Lentiviral production was performed as previously described (Hemming et al., PLOS Biol. 6: e2571-15 (2008)). […]
compound,measurement,setting,value
Cc1ccc(NC(=O)c2ccc(CN3CCN(C)CC3)cc2)cc1Nc1nccc(-c2cccnc2)n1 [imatinib],KIT signaling-dependent transcripts TMEM100 and SPRY2 in xenografts,GIST-T1 xenografts,preferentially reduced
same,expression of genes regulated by HAND1 in xenografts,GIST-T1 xenografts,decrease in the expression of genes regulated by HAND1
same,cell cycle effect,GIST cells [1],G0/G1 cell cycle arrest
same,apoptosis and cell death versus DMSO,GIST cells [2],significant increase in early and late-phase apoptosis and cell death
"O=C(NNS(=O)(=O)c1ccccc1F)c1cc(F)cc(-c2ccccn2)c1 [WM-1119, 2-fluoro-N′-(3-fluoro-5-(pyridin-2-yl)benzoyl)benzenesulfonohydrazide]",expression of GIST TFs,"GIST-T1 cells [3]; GIST-T1, 5 days",greatest global reduction in TF expression
same,global gene expression change (RNA-seq) versus DMSO,GIST-T1 cells [3]; GIST-T1 treated 1 and 5 days,modestly altered expression of numerous genes
same,tumor volume relative to baseline,[4]; treatment day 1 (baseline),100
same,tumor volume relative to baseline,"[4]; treatment day 5, 50 mg/kg",175 and 211 and 114 and 133 and 87 and 152
same,tumor volume relative to baseline,"[4]; treatment day 8, 50 mg/kg",480 and 322 and 157 and 173 and 131 and 206
same,tumor volume relative to baseline,"[4]; treatment day 12, 50 mg/kg",518 and 368 and 287 and 160 and 145 and 260
same,tumor volume relative to baseline,"[4]; treatment day 14, 50 mg/kg",527 and 429 and 327 and 181 and 163 and 328
same,tumor volume relative to baseline,"[4]; treatment day 19, 50 mg/kg",876 and 501 and 511 and 180 and 268 and 277
same,tumor volume relative to baseline,"[4]; treatment day 22, 50 mg/kg",878 and 409 and 489 and 150 and 205 and 361
same,tumor volume relative to baseline,"[4]; treatment day 27, 50 mg/kg",856 and 525 and 558 and 202 and 232 and 317
same,tumor volume relative to baseline,"[4]; treatment day 29, 50 mg/kg",874 and 532 and 648 and 199 and 221 and 353
same,tumor growth compared to vehicle,[4]; end of 28-day treatment period,significant reductions in tumor growth
CC(C)N(C[C@H]1O[C@@H](n2cnc3c(N)ncnc32)[C@H](O)[C@@H]1O)[C@H]1C[C@@H](CCc2nc3cc(C(C)(C)C)ccc3[nH]2)C1 [EPZ-5676],HAND1-regulated transcriptional programs (GSEA),"GIST-T1 cells [3]; GIST-T1, 5 days",significant disruption
same,correlation of transcriptional changes with those of VTP-50469,"GIST-T1 cells [3]; GIST-T1, 5 days, RNA-seq",highly correlated
same,cellular proliferation of GIST-T1 compared to DMSO control or GIST48B,GIST-T1 cells [5],significantly reduced cellular proliferation

# — patent US20250041299A1, “THERAPEUTIC TARGETING OF GASTROINTESTINAL STROMAL TUMOR (GIST) BY DISRUPTING THE MENIN-MLL EPIGENETIC COMPLEX” (DANA-FARBER CANCER INSTITUTE, INC., priority 2021, published 2025)
